Assays:
c-Met [1] = target: T1, c-Met (Homo sapiens, UniProt P08581); assay: biochemical; details: read-out: IC50 (nM) in c-Met enzyme assay
T1 construct: recombinant kinase domain of c-Met

c-Met [2] = target: T1, c-Met; assay: HTRF c-Met kinase assay; also radiometric kinase panel (Met activity -2 at […]); type: biochemical; details: read-out: IC50 (nM) in c-Met enzyme assay

T1 sequence (P08581 956-1390 limits assumed): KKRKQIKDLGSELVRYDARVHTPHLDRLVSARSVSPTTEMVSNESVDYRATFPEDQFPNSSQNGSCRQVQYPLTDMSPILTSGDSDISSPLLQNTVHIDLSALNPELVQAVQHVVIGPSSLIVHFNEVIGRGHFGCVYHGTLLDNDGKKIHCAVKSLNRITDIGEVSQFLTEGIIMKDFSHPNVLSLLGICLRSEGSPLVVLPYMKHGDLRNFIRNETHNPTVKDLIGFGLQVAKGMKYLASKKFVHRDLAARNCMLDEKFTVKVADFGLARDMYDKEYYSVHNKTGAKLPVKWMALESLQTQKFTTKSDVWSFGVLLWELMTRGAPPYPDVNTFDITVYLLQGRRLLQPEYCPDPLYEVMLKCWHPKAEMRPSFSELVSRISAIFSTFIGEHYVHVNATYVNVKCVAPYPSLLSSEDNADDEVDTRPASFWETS

Row | IC50 (c-Met [1]) [nM] | IC50 (c-Met [2]) [nM] | SMILES
1 | 6.3 |  | Cn1cc(-c2cnc3nnn(CC4CNc5ncccc5O4)c3n2)c2ccccc21 (centres unmarked) [KRC-00509]
2 |  | 9 | FC(F)(F)c1cc(-c2cnc3nnn(CC4CNc5ncccc5O4)c3n2)ccc1OCCN1CCOCC1 (centres unmarked) [KRC-00715]

Reference: article PMC4722623, “Novel c-Met inhibitor suppresses the growth of c-Met-addicted gastric cancer cells” (BMC Cancer, 2016)
